From BindingDB's records for patent US20240216357 (Sichuan Huiyu Pharmaceutical, 2024)
pIC50: −log10 of the molar value.

Target: Lysine-specific histone demethylase 1A (Homo sapiens, UniProt O60341)
Assay: LSD1 Enzyme Activity Assay

Structure (SMILES) | pIC50
Cc1ccc(-c2c(-c3ccc(C#N)cc3)nc3c(N4CCC[C@@H](N)C4)nccn23)cc1 [US20240216357, Example 5] | 7.55
COc1ccc(-c2nc(N3CCC(N)CC3)cc(C#N)c2-c2ccc(C#N)c(F)c2)cc1O [US20240216357, Example 274] | 7.62
COc1ccc(Nc2c(O)cc(N3CCC(N)CC3)nc2-c2ccc(C#N)c(F)c2)cc1F [US20240216357, Example 64] | 6.92
COc1ccc(-c2c(-c3ccc(C#N)c(F)c3)nc(N3CCC(N)CC3)c3c2cnn3C)cc1O [US20240216357, Example 285] | 9.03
COc1ccc(-c2c(-c3ccc(C#N)c(F)c3)nc(N3CCC(N)CC3)c3c2OCC(=O)N3)cc1O [US20240216357, Example 280] | 9.57
COc1cc(N2CCC(N)CC2)nc(-c2ccc(C#N)c(F)c2)c1-c1ccc(Cl)c(O)c1 [US20240216357, Example 98] | 9.15
Cc1noc2cc(-c3cc(C#N)c(N4CCC(N)CC4)nc3-c3ccc(C#N)c(F)c3)c(F)cc12 [US20240216357, Example 284] | 6.20
